Data: patent US9359196B2, “Antiproliferative compositions comprising curcumin analogs and methods of producing and using same” (The Board of Regents of the University of Oklahoma, priority 2009, dated 2016)
pIC50: −log10 of the molar value. Read-outs that look alike come from different tables or passages of the source.

Columns and labels:
Format in all cases: cell-based, human
H441 cells [1] = assay: Transmission electron microscopy of treated H441 cells (autophagy); conditions: 24 hour treatment, 1 and 10 μM
Method: Transmission Electron Microscopy (TEM): TEM was performed after 24 hour treatment with 1 and 10 μM of compound 1 or compound 29 (CLEFMA). The cells were fixed in 0.1M sodium cacodylate buffer containing 4% paraformaldehyde (PFA) and 2% glutaraldehyde for 4 h at room temperature. The samples were post-fixed in 1% osmium tetroxide for 1.5 h and washed with 0.1M sodium cacodylate buffer, followed by dehydration in an ethanol series of 50%, 60%, 75%, 85%, and 95% for 15 minutes each. The cells were washed twice in 100% Ethanol and passed through a series of epon-araldite (6.2 g epon+4.4 g araldite+12.4 g of dodecenyl succinic anhydride+0.8 g N,N-dimethylbenzylamine) solution in ethanol, [Matsko et al., 2005] before embedding the cells in epon-araldite resin. Finally, 100 nm sections were cut using a microtome, and the sections were placed on glow-discharged 300 mesh Copper grids. The ultrasections were stained with Sato's lead (mixture of calcinated lead citrate, lead nitrate, lead acetate and sodium citrate), and observed by a Hitachi H-7600 Transmission Electron Microscope at 2500× (Oklahoma Medical Research Foundation Imaging and core facility, Oklahoma City).

[2] = tested on: lung adenocarcinoma cell line H441; assay: Cell proliferation (hexosaminidase assay) in lung adenocarcinoma H441 cells, Example 1; conditions: for pIC50: Homo sapiens, NCI-H441, 24 h of treatment
Method: Cell Proliferation Studies: In order to assess the anti-proliferative activity of the synthesized compounds, an in vitro cell culture system of lung adenocarcinoma cell line H441 was used. The cell detachment and anti-proliferative activity was measured as a decrease in hexosaminidase enzyme activity associated with remainder of the adhered cells. [Landegren, 1984] […] The concentration versus cell proliferation plots were analyzed by an exponential fit (Table 1). The results were compared with the anti-proliferative activity of compound 1.
Cell Culture and drug treatment: Human lung adenocarcinoma cell line NCI-H441 (ATCC Number: HTB-174) was obtained from the American Type Culture Collection (Manassas, Va.). H441 cells were maintained at 37° C. with 5% CO2 in McCoy's 5A Medium (Invitrogen, Carlsbad, Calif.) supplemented with 5% heat-inactivated fetal bovine serum (FBS). All media contained gentamicin at 50 μg/ml (GIBCO Laboratories, Grand Island, N.Y.). Other cells lines (PANC-1, MiaPaCa-2 and PC-3) were also similarly maintained, except that the cell culture medium was RPMI 1640 instead of McCoy's.
To evaluate the anti-proliferative activity of synthesized bis(2-fluorobenzylidene)-4-piperidone and its derivatives, the cells were seeded in 96-well flat-bottom tissue culture plates at a density of 10×10^3 cells per well. The cells were allowed to attach and grow overnight. The test compounds were solubilized in dimethyl sulfoxide (DMSO), filtered through 0.2 μm nylon filter and added to cells at 1, 10, 25 and 100 μM concentrations in culture medium supplemented with 5% FBS. The DMSO concentration was maintained at 0.1% per well. Control wells received equivalent volume of DMSO without any test compounds. The cells were allowed to remain in the treatment medium for 24, 48 and 72 hours.
Cell Proliferation: The total number of cells after the treatment period was estimated by the hexosaminidase assay. [Landegren, 1984] Briefly, the medium was removed and hexosaminidase substrate solution in citrate buffer pH 5 (7.5 mM), […] (Calbiochem, San Diego, Calif.) was added at 60 μl per well. The plate was incubated at 37° C. in 100% humidity for 30 minutes, before stopping the reaction with 90 μl of 50 mM glycine containing 5 mM of EDTA (pH 10.4). The absorbance was measured at 405 nm. The experiments were conducted in triplicate, and repeated at least twice. The data were analyzed as percent of control, where the control wells were treated with equivalent amounts of DMSO alone, and the analyzed data was presented as average±standard error of mean. The differences among mean values were deemed significant at p<0.05.
For IC50 calculations, a plot between the drug concentration and hexosaminidase activity was generated and the data was fitted either linearly or exponentially. The best fit was used for further processing of data.

Nrf2 = assay: Nuclear extract immunoblot of phospho-Nrf2; conditions: H441 cells, nuclear fraction
Method: Nuclear extract and immunoblotting: Nuclear extract was prepared using a kit from Active Motif (Carlsbad, Calif.) following the manufacturer's instructions. Briefly, H441 cells were allowed to grow for 24 h in 6-well plates before treatment with CLEFMA. After 12 or 24 h, the cells were scraped into ice-cold PBS and centrifuged at 300×g for 5 min to obtain a pellet. The pelleted cells was resuspended in a hypotonic buffer (20 mM HEPES, pH 7.5, 5 mM NaF, 0.1 mM EDTA, and 0.01 mM Sodium molybdate) and allowed to swell for 15 min on ice. The cells were lysed by adding 50 μl 10% Nonidet P-40 and centrifuged for 30 sec to separate the cytoplasmic and nuclear fractions. The nuclear fraction was extracted after 30 min in an ice-cold complete lysis buffer obtained with the kit. The nuclear extract was separated by centrifugation for 10 min at 14,000×g at 4° C. To immunoblot nuclear factor-erythroid 2-related factor 2 (Nrf2), the nuclear protein (10 μg) was separated on a 4/20% SDS-PAGE gel, transferred onto nitrocellulose membrane and probed with rabbit anti-phospho-Nrf2 antibody and HRP-conjugated goat anti-rabbit IgG antibody. The chemiluminescence signal was developed by Pierce SuperSignal West Femto reagent (Thermo Scientific, Rockford, Ill.). Equal protein loading was confirmed by stripping the blot and re-probing it with anti-actin antibody. […]

H441 cells [3] = assay: Reactive oxygen species assay (DCFH-DA) in H441 cells; conditions: 24 and 48 h
Method: Reactive oxygen species (ROS) assay: The CLEFMA-induced generation of ROS in H441 and CCL-151 cells was measured using the OxiSelect assay kit (Cell Biolabs, Inc., San Diego, Calif.). Briefly, the cells were cultured in 96-well plates, and the cell-permeable fluorogenic probe 2′,7′-dichlorodihydrofluorescin diacetate (DCFH-DA) was added to the wells and the plate was incubated for 30-60 min. The wells were washed thrice with PBS and treated with CLEFMA in culture medium for 24 and 48 h. After the incubation period, the medium was removed and the cells were gently washed 2-3 times with PBS, and the fluorescence, indicating ROS activity, was measured at 480 nm/530 nm (excitation/emission wavelengths) using the Cytoflour 2300 (Millipore, Billerica, Mass.).

O=C(O)C=CC(=O)N1CC(=Cc2ccccc2Cl)C(=O)C(=Cc2ccccc2Cl)C1 [Compound 29, 4-[3,5-Bis-(2-chlorobenzylidene)-4-oxo-piperidin-1-yl]-4-oxo-2-butenoic acid]
change in cellular architecture (TEM) (H441 cells [1]): induced a substantial change in cellular architecture | anti-proliferative activity in words, relative to the comparator named [2]: enhanced the potency of antiproliferative action | pIC50 ([2]; 1-100 μM tested, fitted plot, read-out: IC50 value): 6.00 | pIC50 ([2]; read-out: IC50 (grouping relative to compound 1)): > 4.52 | Nrf2 activation and nuclear translocation (Nrf2): activated Nrf2 and caused its translocation into the nuclear fraction | ROS generation (H441 cells [3]): generated ROS in a dose- and time-dependent fashion
